From ChEMBL document CHEMBL1201862, “PubChem BioAssay data set” (2004)
Activity calls are given as the source filed them.

Tests used:
[1] = molecular target: Luciferin 4-monooxygenase (Photinus pyralis, UniProt P08659); experiment: inhibition of purified Photinus pyralis luciferase – biochemical, luminescence, dose response (AID 1891)
[2] = molecular target: Cyclin-dependent kinase 5/CDK5 activator 1 (Homo sapiens, UniProt Q00535); experiment: blockade of human CDK5 activity – biochemical, cherry-picked samples, set 2, dose response (AID 504545)
Chain of Cyclin-dependent kinase 5/CDK5 activator 1 (Q00535 whole entry): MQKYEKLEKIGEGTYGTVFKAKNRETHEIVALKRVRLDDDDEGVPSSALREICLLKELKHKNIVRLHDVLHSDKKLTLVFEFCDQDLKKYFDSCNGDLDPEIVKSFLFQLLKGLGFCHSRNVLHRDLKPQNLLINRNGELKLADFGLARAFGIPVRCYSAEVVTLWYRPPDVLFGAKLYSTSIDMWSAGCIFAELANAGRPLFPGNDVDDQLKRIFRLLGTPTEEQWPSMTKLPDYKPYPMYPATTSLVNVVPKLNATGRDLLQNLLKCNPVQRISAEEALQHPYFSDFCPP
Chain of Cyclin-dependent kinase 5/CDK5 activator 1 (Q15078 whole entry, further chain): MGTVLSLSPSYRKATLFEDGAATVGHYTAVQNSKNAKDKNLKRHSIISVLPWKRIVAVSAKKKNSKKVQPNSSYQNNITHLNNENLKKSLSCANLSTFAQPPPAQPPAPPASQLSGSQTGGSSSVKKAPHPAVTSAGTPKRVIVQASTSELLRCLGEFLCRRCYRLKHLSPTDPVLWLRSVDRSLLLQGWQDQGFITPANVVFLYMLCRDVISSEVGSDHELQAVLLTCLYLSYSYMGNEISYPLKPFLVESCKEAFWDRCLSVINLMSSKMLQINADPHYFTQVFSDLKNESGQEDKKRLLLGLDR

[3] = microbe, parasite or virus in culture; format: functional; conditions: Mycobacterium tuberculosis
[4] = HepG2 cell cytotoxicity, dose response, cytotoxicity control for non-replicating M. tuberculosis project (AID 489018); format: functional; conditions: Mycobacterium tuberculosis
[5] = cells; format: functional
[6] = tested on: Vero; experiment: cells; format: functional; conditions: Chlorocebus sabaeus
[7] = THP-1 cell cytotoxicity, dose response, cytotoxicity control for non-replicating M. tuberculosis project (AID 489025); format: functional
[8] = molecular target: Voltage-dependent T-type calcium channel subunit alpha-1H (Homo sapiens, UniProt O95180); format: functional;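 note: channel activity triggered by adding a high calcium stimulation buffer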
Chain of Voltage-dependent T-type calcium channel subunit alpha-1H (O95180 whole entry): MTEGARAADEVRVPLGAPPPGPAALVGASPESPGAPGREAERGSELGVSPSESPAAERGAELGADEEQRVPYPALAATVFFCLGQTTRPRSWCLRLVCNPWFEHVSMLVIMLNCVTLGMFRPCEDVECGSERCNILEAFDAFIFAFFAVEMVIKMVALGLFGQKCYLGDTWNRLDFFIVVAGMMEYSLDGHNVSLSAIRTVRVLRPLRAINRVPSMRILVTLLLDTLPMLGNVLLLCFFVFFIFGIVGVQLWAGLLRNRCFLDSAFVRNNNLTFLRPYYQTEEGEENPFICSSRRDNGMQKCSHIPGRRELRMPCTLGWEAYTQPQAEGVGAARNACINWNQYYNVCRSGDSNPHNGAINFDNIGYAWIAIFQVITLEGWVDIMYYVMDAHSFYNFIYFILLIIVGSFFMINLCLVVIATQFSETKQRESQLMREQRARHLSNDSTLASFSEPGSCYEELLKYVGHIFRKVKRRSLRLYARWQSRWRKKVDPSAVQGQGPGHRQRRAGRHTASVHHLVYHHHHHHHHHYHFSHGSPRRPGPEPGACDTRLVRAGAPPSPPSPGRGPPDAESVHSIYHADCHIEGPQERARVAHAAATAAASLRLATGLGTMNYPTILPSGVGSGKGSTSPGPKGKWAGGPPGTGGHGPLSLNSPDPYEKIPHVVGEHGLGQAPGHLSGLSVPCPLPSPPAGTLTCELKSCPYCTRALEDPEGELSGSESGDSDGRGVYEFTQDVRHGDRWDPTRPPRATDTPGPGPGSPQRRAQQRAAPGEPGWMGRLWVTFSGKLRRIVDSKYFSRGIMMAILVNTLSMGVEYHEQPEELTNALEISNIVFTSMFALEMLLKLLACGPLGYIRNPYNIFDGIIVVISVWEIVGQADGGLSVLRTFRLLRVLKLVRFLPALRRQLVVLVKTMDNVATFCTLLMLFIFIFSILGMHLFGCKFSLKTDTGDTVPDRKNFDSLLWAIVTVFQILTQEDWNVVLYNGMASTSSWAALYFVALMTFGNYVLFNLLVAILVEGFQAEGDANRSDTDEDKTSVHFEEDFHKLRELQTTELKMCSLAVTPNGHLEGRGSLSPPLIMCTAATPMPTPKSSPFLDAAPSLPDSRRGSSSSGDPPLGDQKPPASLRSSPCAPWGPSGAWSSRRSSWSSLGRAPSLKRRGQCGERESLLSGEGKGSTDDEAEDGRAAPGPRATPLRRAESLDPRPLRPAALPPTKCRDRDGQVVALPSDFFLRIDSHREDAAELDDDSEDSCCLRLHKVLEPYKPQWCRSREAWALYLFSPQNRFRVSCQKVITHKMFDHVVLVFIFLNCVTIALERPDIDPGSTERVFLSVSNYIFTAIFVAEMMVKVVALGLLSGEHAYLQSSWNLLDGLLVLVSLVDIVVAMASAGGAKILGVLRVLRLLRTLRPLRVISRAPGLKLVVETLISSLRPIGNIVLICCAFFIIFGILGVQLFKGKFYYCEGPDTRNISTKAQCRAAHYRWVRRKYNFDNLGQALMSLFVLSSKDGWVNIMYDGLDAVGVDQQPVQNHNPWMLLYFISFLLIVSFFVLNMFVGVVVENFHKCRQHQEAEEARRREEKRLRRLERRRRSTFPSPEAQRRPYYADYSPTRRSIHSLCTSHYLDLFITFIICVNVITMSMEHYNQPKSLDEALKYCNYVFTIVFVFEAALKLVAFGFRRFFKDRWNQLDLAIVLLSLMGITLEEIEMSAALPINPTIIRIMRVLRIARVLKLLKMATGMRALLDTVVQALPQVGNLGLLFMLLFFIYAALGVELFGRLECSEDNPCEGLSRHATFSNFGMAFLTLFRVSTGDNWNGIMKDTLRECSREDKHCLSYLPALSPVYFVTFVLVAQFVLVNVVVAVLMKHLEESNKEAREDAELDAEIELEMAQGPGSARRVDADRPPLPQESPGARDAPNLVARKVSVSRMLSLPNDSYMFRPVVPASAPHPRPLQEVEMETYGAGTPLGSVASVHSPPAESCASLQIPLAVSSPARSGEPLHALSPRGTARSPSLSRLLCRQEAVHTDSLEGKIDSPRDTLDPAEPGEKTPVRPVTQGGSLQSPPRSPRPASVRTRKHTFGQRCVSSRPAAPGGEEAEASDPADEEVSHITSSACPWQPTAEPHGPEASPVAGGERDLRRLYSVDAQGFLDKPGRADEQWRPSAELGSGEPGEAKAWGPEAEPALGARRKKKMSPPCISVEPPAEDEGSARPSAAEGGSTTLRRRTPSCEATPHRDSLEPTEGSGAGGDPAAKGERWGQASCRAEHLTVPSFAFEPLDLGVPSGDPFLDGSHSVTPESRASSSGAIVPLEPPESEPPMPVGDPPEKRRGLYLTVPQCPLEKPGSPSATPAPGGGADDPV

[9] = molecular target: Neurotensin receptor type 1 (Homo sapiens, UniProt P30989); format: functional;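 note: Image-based confirmatory dose-response assay measuring agonist activity at NTR1; NTR1-expressing U2OS osteosarcoma cells imaged for beta-arrestin GFP spot formation; agonist potency where compounds increase beta-arrestin recruitment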
Chain of Neurotensin receptor type 1 (P30989 whole entry): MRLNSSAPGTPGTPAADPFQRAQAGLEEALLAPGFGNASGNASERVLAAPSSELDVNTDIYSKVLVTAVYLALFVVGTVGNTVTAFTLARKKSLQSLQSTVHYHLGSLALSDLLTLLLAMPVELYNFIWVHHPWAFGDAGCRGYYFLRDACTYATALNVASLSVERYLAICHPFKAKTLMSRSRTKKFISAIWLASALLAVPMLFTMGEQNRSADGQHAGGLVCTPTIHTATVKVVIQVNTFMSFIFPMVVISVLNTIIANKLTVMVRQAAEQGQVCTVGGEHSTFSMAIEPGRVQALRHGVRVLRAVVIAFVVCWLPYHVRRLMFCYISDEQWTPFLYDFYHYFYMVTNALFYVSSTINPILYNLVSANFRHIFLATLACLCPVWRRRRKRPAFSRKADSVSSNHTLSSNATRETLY

[10] = tested on: Streptococcus sp. 'group A'; experiment: Streptococcus pyogenes SK(-)GAS viability under kanamycin – luminescence, BacTiterGlo, confirmation, counter-screen for streptokinase expression inhibitor project, dose response (AID 1900); format: functional, organism-based
[11] = Vero E6 cell cytotoxicity, dose response, cytotoxicity control for non-replicating M. tuberculosis project, secondary assay (AID 492998); format: functional, VeroE6; conditions: Vero C1008
[12] = tested on: Streptococcus; experiment: GAS UMAA2166 growth inhibition – luminescence, BacTiterGlo, counter-screen for streptokinase expression inhibitor project, dose response (AID 1915); format: functional, organism-based;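 note: potency for reduction of bacterial viability or growth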
[13] = molecular target: T1, Streptokinase A (Streptococcus pyogenes serotype M1, UniProt P10520); experiment: viability-normalized secreted streptokinase activity reduction – plasminogen activation absorbance, OD405, dose response (AID 1914); format: functional, Streptococcus pyogenes M1 GAS;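 note: secreted streptokinase activity via plasminogen activation per viability signal from cell pellet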
T1 sequence (P10520 whole entry): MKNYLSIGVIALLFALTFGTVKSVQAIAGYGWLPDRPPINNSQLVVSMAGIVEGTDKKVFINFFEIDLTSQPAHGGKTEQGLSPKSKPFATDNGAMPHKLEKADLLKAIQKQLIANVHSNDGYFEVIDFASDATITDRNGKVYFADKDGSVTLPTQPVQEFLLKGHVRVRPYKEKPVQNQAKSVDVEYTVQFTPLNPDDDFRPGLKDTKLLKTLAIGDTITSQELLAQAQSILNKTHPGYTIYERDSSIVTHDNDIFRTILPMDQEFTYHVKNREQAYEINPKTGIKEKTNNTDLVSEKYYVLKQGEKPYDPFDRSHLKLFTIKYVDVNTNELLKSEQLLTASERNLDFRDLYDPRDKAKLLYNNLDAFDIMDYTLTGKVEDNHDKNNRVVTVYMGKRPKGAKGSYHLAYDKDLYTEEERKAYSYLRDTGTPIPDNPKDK

[14] = molecular target: T2, Microphthalmia-associated transcription factor (Homo sapiens, UniProt O75030); experiment: reducers of TRPM1 reporter luminescence, concentration series – cell-based, SK-MEL-5, cherry-picked, set 3, MITF inhibitor project, dose response (AID 493073); format: functional;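 note: SK-MEL-5 melanoma cells with luciferase driven by the MITF target TRPM1 promoter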
T2 sequence (O75030 whole entry): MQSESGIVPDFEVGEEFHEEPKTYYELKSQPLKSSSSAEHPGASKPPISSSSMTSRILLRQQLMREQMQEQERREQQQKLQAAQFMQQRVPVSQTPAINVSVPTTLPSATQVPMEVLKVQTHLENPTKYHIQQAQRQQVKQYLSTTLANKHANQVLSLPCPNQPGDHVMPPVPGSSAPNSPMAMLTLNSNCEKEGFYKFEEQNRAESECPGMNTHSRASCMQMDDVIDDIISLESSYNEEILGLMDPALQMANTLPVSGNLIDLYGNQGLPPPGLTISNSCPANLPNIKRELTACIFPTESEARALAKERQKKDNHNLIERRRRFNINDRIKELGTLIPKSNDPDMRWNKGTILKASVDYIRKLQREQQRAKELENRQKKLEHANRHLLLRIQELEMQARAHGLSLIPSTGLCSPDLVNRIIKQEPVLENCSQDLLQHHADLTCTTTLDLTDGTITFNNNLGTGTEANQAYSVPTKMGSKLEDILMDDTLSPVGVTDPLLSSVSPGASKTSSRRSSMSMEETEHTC

[15] = molecular target: T3, CAAX prenyl protease 2 (Saccharomyces cerevisiae S288c, UniProt Q03530); format: biochemical
T3 sequence (Q03530 whole entry): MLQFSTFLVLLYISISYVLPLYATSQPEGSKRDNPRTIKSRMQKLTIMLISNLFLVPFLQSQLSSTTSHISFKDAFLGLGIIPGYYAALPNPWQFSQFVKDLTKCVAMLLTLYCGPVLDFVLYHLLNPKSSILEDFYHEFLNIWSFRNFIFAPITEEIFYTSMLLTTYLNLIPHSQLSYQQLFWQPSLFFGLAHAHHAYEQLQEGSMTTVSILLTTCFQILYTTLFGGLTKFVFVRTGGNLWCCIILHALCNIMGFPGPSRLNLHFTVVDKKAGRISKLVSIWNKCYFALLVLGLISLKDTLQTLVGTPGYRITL

[16] = molecular target: Beta-galactosidase (Escherichia coli, UniProt Q8VNN2); experiment: PubChem AID 485352; format: functional
Chain of Beta-galactosidase (Q8VNN2 whole entry): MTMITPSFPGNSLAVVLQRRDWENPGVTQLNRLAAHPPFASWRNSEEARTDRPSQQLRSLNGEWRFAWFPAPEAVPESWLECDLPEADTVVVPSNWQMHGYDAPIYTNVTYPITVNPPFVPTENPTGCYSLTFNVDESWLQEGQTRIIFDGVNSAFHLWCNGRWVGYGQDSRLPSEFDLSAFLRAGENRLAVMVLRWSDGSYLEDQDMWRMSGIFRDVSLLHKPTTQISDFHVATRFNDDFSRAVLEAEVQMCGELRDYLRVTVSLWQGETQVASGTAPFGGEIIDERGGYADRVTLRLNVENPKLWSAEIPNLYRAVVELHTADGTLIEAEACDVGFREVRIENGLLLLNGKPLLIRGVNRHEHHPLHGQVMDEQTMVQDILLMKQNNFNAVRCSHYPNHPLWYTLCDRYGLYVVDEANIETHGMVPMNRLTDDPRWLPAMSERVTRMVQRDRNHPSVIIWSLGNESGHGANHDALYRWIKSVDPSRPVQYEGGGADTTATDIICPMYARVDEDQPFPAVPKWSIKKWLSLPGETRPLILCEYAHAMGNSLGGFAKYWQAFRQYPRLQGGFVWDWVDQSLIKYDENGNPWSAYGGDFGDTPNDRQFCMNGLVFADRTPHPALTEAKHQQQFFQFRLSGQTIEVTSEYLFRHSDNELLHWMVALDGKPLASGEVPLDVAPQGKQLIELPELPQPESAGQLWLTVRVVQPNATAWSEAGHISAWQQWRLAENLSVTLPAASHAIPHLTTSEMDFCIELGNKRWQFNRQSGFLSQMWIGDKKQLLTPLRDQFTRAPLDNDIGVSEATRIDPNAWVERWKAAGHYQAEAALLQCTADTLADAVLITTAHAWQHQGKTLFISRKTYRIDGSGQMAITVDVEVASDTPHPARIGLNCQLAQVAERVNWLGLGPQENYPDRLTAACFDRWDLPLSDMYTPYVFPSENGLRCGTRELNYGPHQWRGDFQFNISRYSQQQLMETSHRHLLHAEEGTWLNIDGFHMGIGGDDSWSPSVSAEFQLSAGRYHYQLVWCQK

[17] = molecular target: T4, Ubiquitin-conjugating enzyme E2 N (Homo sapiens, UniProt P61088); format: functional;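 note: Dose-response confirmation in a TR-FRET assay detecting UBC13-driven polyubiquitin chain formation, inhibition measured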
T4 sequence (P61088 whole entry): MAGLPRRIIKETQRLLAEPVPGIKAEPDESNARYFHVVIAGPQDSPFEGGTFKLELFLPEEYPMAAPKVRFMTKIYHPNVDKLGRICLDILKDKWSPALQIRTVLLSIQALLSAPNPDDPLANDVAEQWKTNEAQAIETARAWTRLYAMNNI

[18] = Luminescence Cell-Based Dose Retest to Confirm Inhibitors of Cancer Stem Cells. [Related pubchem assays (depositor defined):AID2717, AID2721]; format: functional, Homo sapiens; conditions: Homo sapiens
[19] = molecular target: T5, Type-1 angiotensin II receptor (Homo sapiens, UniProt P30556); experiment: antagonism of angiotensin II type 1 receptor – cell-based, uHTS hits, selectivity assay for APJ receptor antagonist project, dose response (AID 463214); format: functional;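 note: antagonist potency against angiotensin II stimulated AT1 response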
T5 sequence (P30556 whole entry): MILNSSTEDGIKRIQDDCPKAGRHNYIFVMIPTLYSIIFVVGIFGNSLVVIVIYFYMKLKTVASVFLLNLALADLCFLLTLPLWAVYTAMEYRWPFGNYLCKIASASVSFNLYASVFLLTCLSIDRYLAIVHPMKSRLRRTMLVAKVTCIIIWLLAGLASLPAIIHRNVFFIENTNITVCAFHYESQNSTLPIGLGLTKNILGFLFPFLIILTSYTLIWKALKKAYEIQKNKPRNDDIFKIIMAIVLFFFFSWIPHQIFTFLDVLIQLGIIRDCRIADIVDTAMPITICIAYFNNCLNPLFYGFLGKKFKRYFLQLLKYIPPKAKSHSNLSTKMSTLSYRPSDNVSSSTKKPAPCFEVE

[20] = A Cell Based Secondary Assay To Explore Cytotoxicity of Compounds that Sensitize Mycobacterium Tuberculosis to Beta-Lactam Antibiotics.; format: functional
[21] = molecular target: T6, Hexokinase (Trypanosoma brucei, UniProt Q38C41); experiment: Confirmation assay for inhibitors of Trypanosoma brucei hexokinase 1-Analogue-first series. [Related pubchem assays (depositor defined):AID1430, AID1632, AID2516, AID2560, AID2579, AID2600, AID449725, AID492951]; format: functional
T6 sequence (Q38C41 whole entry): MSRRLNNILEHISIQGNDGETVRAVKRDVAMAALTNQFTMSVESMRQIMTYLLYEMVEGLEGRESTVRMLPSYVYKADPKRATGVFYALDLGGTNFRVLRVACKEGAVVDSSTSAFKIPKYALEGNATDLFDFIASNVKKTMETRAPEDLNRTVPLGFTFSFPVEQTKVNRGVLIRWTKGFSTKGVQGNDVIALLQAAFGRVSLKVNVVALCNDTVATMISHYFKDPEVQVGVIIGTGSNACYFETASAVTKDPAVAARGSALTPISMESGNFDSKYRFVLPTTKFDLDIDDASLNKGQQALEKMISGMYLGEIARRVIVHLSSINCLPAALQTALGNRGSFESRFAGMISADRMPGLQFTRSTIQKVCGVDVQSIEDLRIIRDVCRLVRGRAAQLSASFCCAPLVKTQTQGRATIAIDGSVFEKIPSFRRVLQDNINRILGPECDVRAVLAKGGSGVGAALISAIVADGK

Chain of Luciferin 4-monooxygenase (P08659 whole entry): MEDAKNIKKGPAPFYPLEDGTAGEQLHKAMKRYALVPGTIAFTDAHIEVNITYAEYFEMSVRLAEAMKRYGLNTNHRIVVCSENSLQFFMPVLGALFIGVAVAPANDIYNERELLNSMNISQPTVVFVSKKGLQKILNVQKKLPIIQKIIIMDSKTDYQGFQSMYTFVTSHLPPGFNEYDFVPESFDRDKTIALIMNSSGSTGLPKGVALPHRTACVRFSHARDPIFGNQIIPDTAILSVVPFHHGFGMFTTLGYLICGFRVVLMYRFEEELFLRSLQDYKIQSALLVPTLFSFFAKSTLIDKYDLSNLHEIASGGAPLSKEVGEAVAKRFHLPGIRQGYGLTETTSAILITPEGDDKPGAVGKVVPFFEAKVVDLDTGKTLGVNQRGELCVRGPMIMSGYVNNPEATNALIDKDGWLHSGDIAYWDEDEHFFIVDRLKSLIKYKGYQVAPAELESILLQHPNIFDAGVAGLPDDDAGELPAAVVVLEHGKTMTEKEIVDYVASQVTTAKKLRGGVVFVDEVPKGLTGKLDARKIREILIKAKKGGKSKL

## COc1ccc(C(=O)ON=C(N)c2ccccc2)cc1
[1]
  EC50: 1.21 µM (active)
[2]
  AC50: 17.2 µM (active)

## CCNc1nc(NC(C)(C)C)nc(N2CCCCC2)n1
[3]
  CC50: 13.4 µM (active)
[4]
  CC50: > 20 µM (active)
[5]
  IC50: 28.8 µM (active)
[6]
  CC50: > 25 µM (active)
[7]
  CC50: > 40 µM (active)

## COc1ccc(CNC(=O)CSCc2cnn(-c3ccccc3)c2-n2cccc2)cc1
[8]
  EC50: 4.8 µM (active)

## N#CC1=C(c2ccccc2)/C(=C/c2ccccc2)OC1=O
[9]
  EC50: 6.66 µM (active)
[3]
  CC50: 24.1 µM (active)
[10]
  EC50: 10.6 µM (active)
[5]
  IC50: 10 µM (active)
[11]
  CC50: > 20 µM (active)
[12]
  EC50: > 150 µM (not active)
[13]
  EC50: 2.38 µM (active)
[14]
  AC50: 4.25 µM (active)
[7]
  CC50: > 40 µM (active)

## O=[N+]([O-])c1ccc2[nH]c(-c3ccccn3)nc2c1
[4]
  CC50: 17.4 µM (active)
[5]
  IC50: 42.1 µM (active)
[11]
  CC50: 14.8 µM (active)
[7]
  CC50: 13.4 µM (active)

## COc1ccccc1CC(=O)Nc1ccc2c(C)cc(=O)oc2c1
[15]
  AC50: 34.5 µM (active)

## Cc1ccc(NC(=O)CSc2nnc(Cc3cccn3C)n2-c2ccc(F)cc2)cc1
[8]
  EC50: 3.49 µM (active)

## CC(C)N1CCc2c(sc(NC(=O)c3cc(-c4cccs4)nc4ccccc34)c2C(N)=O)C1
[16]
  EC50: > 40 µM (inactive)
[17]
  IC50: > 20 µM (inactive)
[18]
  AC50: 13.2 µM (active)
[19]
  IC50: > 40 µM (not active)
[20]
  CC50: 6.25 µM (active)

## COC(=O)c1ccc(Cl)cc1NS(=O)(=O)c1ccc(OC)cc1
[21]
  IC50: > 25 µM (inactive)
